{
  "source": "paper PMC9241669",
  "about": "“Allantodapsone is a Pan-Inhibitor of Staphylococcus aureus Adhesion to Fibrinogen, Loricrin, and Cytokeratin 10” (Microbiology Spectrum, 2022)",
  "key": {"S. aureus Newman [1]": {"tested_on": "S. aureus Newman", "test": "Adhesion of S. aureus Newman to GST-L2v loricrin", "assay_type": "cell-based, Staphylococcus aureus", "conditions": "for concentration giving full inhibition of adhesion to L2v loricrin: S. aureus Newman, GST-L2v", "experimental": "(§1) FIG 4 Allantodapsone inhibits S. aureus adhesion to loricrin and cytokeratin 10. Dose-response curve for adhesion of S. aureus Newman to GST-L2v loricrin (A) and CK10 (C). (B) Inhibition of recombinant ClfB N2N3 binding to immobilized GST-L2v loricrin by allantodapsone. (D) Inhibition of S. aureus Newman adhesion to GST-L2v loricrin by allantodapsone derivatives. Purified GST-L2v or CK10 were used to coat plates at 4°C overnight. Wells were washed with PBS and blocked with 1% BSA. Washed bacteria (OD600 of 1) were mixed with allantodapsone or vehicle control before being added to the wells and incubated for 2 h at 37°C. Adherent cells were washed, fixed, and stained with crystal violet, and wells further washed. The dye was dissolved in acetic acid, and the absorbance measured at 570 nm. GST-L2v was used at 20 μM in A and D. CK10 was used at 10 nM. Test compounds were incubated with bacteria at 80 μM and normalized to the DMSO vehicle control in D. For data presented in B, recombinant ClfB was incubated with allantodapsone (100 μM) or DMSO (1%) for 30 min prior to being added to wells coated with recombinant GST-L2v loricrin. Bound ClfB was detected using peroxidase-conjugated anti-His monoclonal antibody in an ELISA. The graphs shown are representative of three independent experiments. Statistics were carried out using one-way ANOVA followed by the Dunnett’s posttest using GraphPad Prism version 9.0.\nAdhesion assays were carried out according to Hartford et al. ([37]). Briefly, plates were coated with 10 μg/mL fibrinogen (Calbiochem, Darmstadt, Germany) or 20 μg/mL fibronectin (Sigma-Aldrich, Ireland) for 2 h at 37°C or for 16 h at 4°C. Plates were blocked with 1% BSA at 37°C for 1 h and washed 3 times in PBS. Washed bacteria were incubated at 37°C for 2 h. Adherent bacteria were washed three times in PBS and fixed in 5–9% formaldehyde at room temperature for 30 min. Wells were washed three times in PBS and stained using 5% crystal violet for 20 min. Wells were washed three times in PBS, and the crystal violet solubilized using 5% acetic acid. Plates were read at 570 nm on a Wallac Victor2, (Shelton, CT, USA). The minimum adhesion inhibitory concentration (MAIC) was determined as the concentration inhibiting greater than 90% bacterial adhesion."}, "S. aureus Newman [2]": {"tested_on": "S. aureus Newman", "test": "Adhesion of S. aureus Newman to cytokeratin 10 (CK10)", "assay_type": "cell-based, Staphylococcus aureus", "conditions": "CK10 10 nM", "experimental": "as §1, with “Test compounds were incubated with bacteria at 80 μM and normalized to the DMSO vehicle control in D. For data presented in B, recombinant ClfB was incubated with allantodapsone (100 μM) or DMSO (1%) for 30 min prior to being added to wells coated with recombinant GST-L2v loricrin.” left out, “The graphs shown are representative of three independent experiments. Statistics were carried out using one-way ANOVA followed by the Dunnett’s posttest using GraphPad Prism version 9.0.” left out\nAdhesion assays were carried out according to Hartford et al. ([37]). […] Plates were read at 570 nm on a Wallac Victor2, (Shelton, CT, USA). The minimum adhesion inhibitory concentration (MAIC) was determined as the concentration inhibiting greater than 90% bacterial adhesion."}, "[3]": {"tested_on": "platelet aggregation induced by S. aureus Newman", "test": "Platelet aggregation induced by S. aureus Newman in platelet rich plasma", "assay_type": "cell-based, human", "conditions": "100 μM allantodapsone, 5 minutes prior to aggregation", "experimental": "V. Microbiology: Materials and Methods\nThe MTT toxicity assay (1) (Vybrant MTT Cell Proliferation Assay, Molecular Probes, Or, USA) was used to measure cytotoxicity. Myeloid lineage, U-937 cells (2) were grown in RPMI-1640 (Gibco) culture medium supplemented with 10% foetal calf serum, 1% L-glutamine and 1% Penicillin/Streptomycin (Gibco). U-937 cells were centrifuged and cells diluted with fresh medium containing 1.2 mM MTT solution to a concentration of (5-6 x 10^6 per mL) and incubated at 37 °C for 2 h. Cells were centrifuged and the pellet dissolved in DMSO. The absorbance was read at 490 nm using the Wallac Victor2, (Shelton, Connecticut, USA).\nPlatelet aggregation was performed in platelet rich plasma according to O’Brien et al.\nS. aureus Newman (stationary phase) was washed and diluted to an OD600 of 2.5.\nThis was mixed with 10 mg/mL of fibrinogen in 1:1 ratio resulting in a final concentration 5 mg/mL fibrinogen. Fibrinogen -bacteria aggregates clump and settle at the bottom of the tube resulting in a clear solution. These were compared to the turbid bacterial suspension in buffer by visual inspection. […]\nof S. aureus Newman was used as an agonist to stimulate platelet aggregation. […] Data was analysed by repeated measures ANOVA followed by a multiple comparison Dunnett’s test. […]"}},
  "data": [
    {"smiles": "Nc1ccc(S(=O)(=O)c2ccc(NCN3C(=O)NC(=O)C(=O)C3=O)cc2)cc1", "note": "[Allantodapsone]", "values": [
      {"measurement": "concentration giving full inhibition of adhesion to L2v loricrin", "setting": "S. aureus Newman [1]", "value": 40, "unit": "µM"},
      {"measurement": "concentration giving full inhibition of adhesion to L2v loricrin", "setting": "S. aureus Newman [1]; listed as allantodapsone", "value": 16.1, "unit": "µg/mL"},
      {"measurement": "IC50", "setting": "S. aureus Newman [1]; Staphylococcus aureus, NEWMAN, read-out: IC50, inhibition of adhesion to L2v loricrin", "value": 9.87, "unit": "µM"},
      {"measurement": "inhibition of adhesion to CK10", "setting": "S. aureus Newman [2]", "value": "dose dependent inhibition"},
      {"measurement": "inhibition of S. aureus Newman induced platelet aggregation", "setting": "[3]", "value": "did not inhibit"}
    ]}
  ]
}
